Test results: PubChem BioAssay (NCI)
Several values for one entry are separate records, joined by “and”; a condition that tells them apart may be missing. Equal values may be shown once.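 Following 48 hours of exposure in 96-well plates, responses at five concentrations were used to interpolate endpoints linearly. Here, GI50 denotes the concentration required for 50% inhibition of growth. TGI is the concentration that stops growth completely.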

Experiments:
Assay in all cases: growth of human tumour cells (NCI), 48 h
NCI-H226 lung = tested on: NCI-H226 lung
NCI-H522 lung = tested on: NCI-H522 lung
DMS 273 small cell lung = tested on: DMS 273 small cell lung
SNB-19 CNS = tested on: SNB-19 CNS
DLD-1 colon = tested on: DLD-1 colon
SK-MEL-5 melanoma = tested on: SK-MEL-5 melanoma
HOP-92 NSCLC = tested on: HOP-92 NSCLC
HOP-62 NSCLC = tested on: HOP-62 NSCLC
MDA-MB-231 breast = tested on: MDA-MB-231 breast
MCF7 breast = tested on: MCF7 breast

| Compound | TGI (NCI-H226 lung) | TGI (NCI-H522 lung) | TGI (DMS 273 small cell lung) | TGI (SNB-19 CNS) | TGI (DLD-1 colon) | TGI (SK-MEL-5 melanoma) | TGI (HOP-92 NSCLC) | GI50 (NCI-H226 lung) | GI50 (NCI-H522 lung) | GI50 (HOP-62 NSCLC) | TGI (HOP-62 NSCLC) | GI50 (MDA-MB-231 breast) | TGI (MDA-MB-231 breast) | GI50 (DMS 273 small cell lung) | GI50 (MCF7 breast) | TGI (MCF7 breast) | GI50 (SNB-19 CNS) | GI50 (DLD-1 colon) | GI50 (SK-MEL-5 melanoma) | GI50 (HOP-92 NSCLC) |
| --- | --- | --- | --- | --- | --- | --- | --- | --- | --- | --- | --- | --- | --- | --- | --- | --- | --- | --- | --- | --- |
| C[C@@H]1CC2(C[C@@H](C)C3[C@@H](CC4(C)CCCC5C6=CC(O)(CC[C@]34C)OC6=CC(=O)OC5(C)C)O2)OC1=O (some centres undefined) | > 100 µM | > 100 µM | > 100 µM | > 100 µM | > 100 µM | > 100 µM | > 100 µM |  |  |  |  |  |  |  |  |  |  |  |  |  |
| Cc1c(-c2ccc(-c3ccccc3F)cc2)nc2ccc(F)cc2c1C(=O)O | 216 µM and 209 µM | 93.8 µM and 434 µM | 29.3 µM and 89.9 µM | 164 µM and 513 µM | 146 µM and 1040 µM | 58.6 µM and 186 µM | 88.6 µM | 38.3 µM and 29.4 µM | 9.89 µM and 67.3 µM | 0.5 µM | 35 µM and 199 µM | 89.8 µM and 30.5 µM | 146 µM and 250 µM | 0.5 µM | 0.445 µM and 0.979 µM | 170 µM and 405 µM | 0.864 µM and 1.73 µM | 1.58 µM | 2.37 µM | 27.7 µM |
| COc1cccc(C=NC23CC4CC(CC(C4)C2)C3)c1 | > 100 µM | > 100 µM | > 100 µM | > 100 µM |  | > 100 µM | > 100 µM |  |  |  | > 100 µM |  |  |  |  |  |  |  |  |  |
| Cc1cc(O)c2c(c1)OC1(C)CCC3C(C)(C)CCCC34COC2C14 (centres undefined) | 31 µM | 34.6 µM | 27.1 µM | 32.7 µM | 36.8 µM | 27.5 µM |  |  |  |  | 28.5 µM |  |  |  |  |  |  |  |  |  |
| CNC(=O)NCCCCC(NC(C)=O)C(=O)NCc1ccccc1 (centres undefined) | > 100 µM | > 100 µM | > 100 µM | > 100 µM | > 100 µM | > 100 µM | > 100 µM |  |  |  | > 100 µM |  |  |  |  |  |  |  |  |  |
| CCOC(=O)C(Cc1cc(OC)c(CC(C(=O)OCC)C(=O)OCC)cc1OC)C(=O)OCC | > 100 µM | > 100 µM | > 100 µM | > 100 µM | > 100 µM | > 100 µM | 83.8 µM |  |  |  | > 100 µM |  | > 100 µM |  |  | > 100 µM |  |  |  |  |
| C=C(c1ccccc1)c1cc2c(=O)[nH]ccc2n1C |  | 54.9 µM | > 100 µM | > 100 µM | > 100 µM | 71.1 µM | 61.3 µM |  |  |  | > 100 µM |  |  |  |  |  |  |  |  |  |
| O=C(C#Cc1ccccc1)NC/C=C/c1ccccc1 | 93.8 µM | 96.6 µM |  | 79.9 µM | > 100 µM | > 100 µM | 57.2 µM |  |  |  | 52.5 µM |  |  |  |  |  |  |  |  |  |
| O=C(O)C1CC2C=CCC(C2)C1 (centres undefined) | > 100 µM | > 100 µM | > 100 µM | > 100 µM | > 100 µM | > 100 µM | > 100 µM |  |  |  | > 100 µM |  |  |  |  |  |  |  |  |  |
| CC(NC1CCCC[C@@H]1O)c1ccccc1 (some centres undefined) | > 100 µM |  | > 100 µM | > 100 µM | > 100 µM | > 100 µM | > 100 µM |  |  |  | > 100 µM |  |  |  |  |  |  |  |  |  |
| O=C1N=C2N=C(c3ccc(Cl)cc3)N(c3ccc(Cl)cc3)N2Sc2ccccc21 | > 100 µM | > 100 µM | > 100 µM | > 100 µM | > 100 µM | > 100 µM | > 100 µM |  |  |  | > 100 µM |  |  |  |  |  |  |  |  |  |
| COc1c2c(c(O)c3c4c(c(C)cc13)C1OC3(C(OC)OC5CC(C)(O)C(OC6CC(C)(O)C(O)C(C)O6)C(C)O5)OC1C(OC)(O4)C31CO1)C(=O)C(O)CC2OC1CC(C)(O)C(OC(C)=O)C(C)O1 (centres undefined) | < 0.01 µM | < 0.01 µM | < 0.01 µM | 0.739 µM | 4.17 µM | < 0.01 µM | < 0.01 µM |  |  |  |  |  |  |  |  |  |  |  |  |  |
| C/C(=C\c1ccccc1)C(=O)c1c(C)cc(C)cc1C | > 100 µM | > 100 µM |  | > 100 µM | > 100 µM | > 100 µM | > 100 µM |  |  |  | > 100 µM |  |  |  |  |  |  |  |  |  |
| c1ccc(N2CCN(CCN3CCc4c([nH]c5ccccc45)C3c3cccnc3)CC2)cc1 (centres undefined) |  | > 100 µM | > 100 µM | > 100 µM | > 100 µM | > 100 µM | 92.5 µM |  |  |  | > 100 µM |  |  |  |  |  |  |  |  |  |
| O=C(NCCCN1CCN(CCCNC(=O)Nc2cc(Cl)ccc2Cl)CC1)Nc1cc(Cl)ccc1Cl | > 100 µM | > 100 µM | > 100 µM | > 100 µM | > 100 µM | > 100 µM | > 100 µM |  |  |  | > 100 µM |  |  |  |  |  |  |  |  |  |
| COC(=O)C1=C(O)c2cc(OC)c(OC)c(OC)c2C(c2ccc3c(c2)OCO3)[C@@H]1C(=O)OC (some centres undefined) | > 100 µM |  | > 100 µM |  | > 100 µM |  | > 100 µM |  |  |  | > 100 µM |  |  |  |  |  |  |  |  |  |
| COc1ccc(OCC(=O)O)c2c1CCC(C)C2=O (centres undefined) |  | > 100 µM | > 100 µM | > 100 µM | > 100 µM | > 100 µM |  |  |  |  | > 100 µM |  |  |  |  |  |  |  |  |  |
| Cc1nc(Nc2ccc(Cl)cc2)sc1C(=O)Nc1cccc2c(=O)[nH][nH]c(=O)c12 | > 100 µM | 75.5 µM | > 100 µM | > 100 µM | 86.4 µM | 45.2 µM | 38.8 µM |  |  |  | > 100 µM |  |  |  |  |  |  |  |  |  |
